Experimental findings from US20260109712A1, “RIFAMYCINS FOR NONTUBERCULOUS MYCOBACTERIA” (priority 2022, published 2026) are described below.

In brackets after ≈: the same amount, converted by molar mass. Read-outs that look alike come from different tables or passages of the source.

One series relates to M. fortuitum ATCC 6841. In words: MIC, anti-mycobacterial profiling. The class given is cell-based, Mycobacterium fortuitum. The following applies: mean of two experiments.
The test system of another series is M. xenopi ATCC 19250. The series can be described thus: MIC, anti-mycobacterial profiling. The class given is cell-based, Mycobacterium xenopi. The note with it: mean of two experiments.
A further series has as its system M. chimaera CCUG 50989T. In words: MIC, anti-mycobacterial profiling. The class given is cell-based, Mycobacterium chimaera. The following applies: mean of two experiments.
The subject of the next series is M. kansasii ATCC 12478. In words: MIC, anti-mycobacterial profiling. The following applies: mean of two experiments. The class given is cell-based, Mycobacterium kansasii.
Another series has as its system M. abscessus ATCC 19977. The series can be described thus: MIC assay in 96-well plate format, wild-type strain. The note with it: for MICWT: Table 10. The class given is cell-based, Mycobacterium abscessus. In a few lines:
(§1)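 Two-fold, ten-point dilutions in 7H9 with 2% DMSO; mid-log culture diluted to OD600=0.1 (1×10^7 CFU/mL). Incubated 3 days at 37 °C, shaking 110 RPM; growth = Day 3 minus Day 0 OD600, expressed as percentage of drug-free growth and plotted against concentration. Two biological replicates.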

For series [1], the system named is M. intracellulare ATCC 13950. In words: MIC, anti-mycobacterial profiling. The following applies: mean of two experiments. The class given is cell-based, Mycobacterium intracellulare.
The test system of series [2] is M. abscessus subsp. bolletii CCUG 50184T. The series can be described thus: MIC, anti-mycobacterial profiling. Format: cell-based, Mycobacterium abscessus. The following applies: mean of two experiments. The procedure: (§2) MIC determination was carried out in 96-well plate format as previously described.^[13-14] 96-well plates were initially set up with 100 μL of 7H9 per well. For each compound, a ten-point two-fold dilution series starting at twice the desired highest concentration was dispensed onto the 96-well plates using a Tecan D300e Digital Dispenser, with the DMSO concentration normalized to 2%. M. abscessus culture grown to mid-log phase (OD600=0.4-0.6) was diluted to OD600=0.1 (1×10^7 CFU/mL). 100 μL of the resulting bacteria suspension was dispensed onto the 96-well plates containing compounds to give a final volume of 200 μL per well with an initial OD600=0.05 (5×10^6 CFU/mL) and final DMSO concentration of 1%. Final compound concentration ranges were typically 50-0.098 μM, 6.25-0.012 μM, 0.006-3.13 μM, or 0.003-1.56 μM. Untreated control wells are included on each plate that contain bacteria suspension and 1% DMSO. Plates were sealed with parafilm, stored in boxes with wet paper towels and incubated at 37° C. with shaking (110 RPM). Plates were incubated for 3 days. To determine growth, OD600 was measured using a Tecan Infinite M200 plate reader on Day 0 and Day 3. Two biological replicates were performed. Clarithromycin was included in each experiment as a positive control.
(§3) For each well on the 96-well plate, bacterial growth was calculated by subtracting the Day 0 OD600 value from the Day 3 OD600 value. For each compound series, the bacterial growth values for the untreated control wells were averaged to give the average drug-free bacterial growth. For compound-containing wells, percentage growth was calculated by dividing their growth values by the average drug-free bacterial growth for the compound series and multiplying by 100. For each compound series, we plotted percentage growth versus compound concentration. By visual inspection of the dose-response curve, we determined the MIC of a compound as the compound concentrations that would result in 90% growth inhibition.
(§4) The MIC data was determined using methods disclosed in Example 1.

The test system of series [3] is M. abscessus subsp. massiliense CCUG 48898T. The series can be described thus: MIC, anti-mycobacterial profiling. Format: cell-based, Mycobacterium abscessus. The note with it: mean of two experiments. The procedure: as §2, §3, §4
The next series deals with M. szulgai ATCC 35799. The series can be described thus: MIC, anti-mycobacterial profiling. Format: cell-based, Mycobacterium szulgai. The following applies: mean of two experiments.
The subject of a further series is M. chelonae ATCC 35752. In words: MIC, anti-mycobacterial profiling. Format: cell-based, Mycobacterium chelonae. The following applies: mean of two experiments.
Another series concerns M. simiae ATCC 25275. The series can be described thus: MIC, anti-mycobacterial profiling. Format: cell-based, Mycobacterium simiae. The note with it: mean of two experiments.
In series [4] the test system is M. avium subsp. hominisuis MAC109. In words: MIC, anti-mycobacterial profiling. Format: cell-based, Mycobacterium avium. The note with it: mean of two experiments.
The test system of a further series is CYP3A4. The following applies: human, 10 μM.
The nature of series [5]: Plasma protein binding assay (rapid equilibrium dialysis). The note with it: plasma. Format: in vitro ADME. An outline of the steps: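 Plasma was spiked to 10,000 ng/mL compound and dialysed against PBS by rapid equilibrium dialysis for 4 h at 37° C with shaking at 300 RPM. Plasma and buffer aliquots were matrix-matched 1:1 […] and quantified by LC-MS/MS.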

Another series concerns THP-1. The series can be described thus: Fold-killing in THP-1. Format: cell-based. The note with it: expressed in log-10 scale.
For a further series, the system named is Δarr M. abscessus. The series can be described thus: MIC assay, isogenic arr-deleted strain. Format: cell-based, Mycobacterium abscessus. The following applies: Table 10. In a few lines: as §1
For a further series, the system named is Mycobacterium abscessus. The series can be described thus: MIC against Mycobacterium abscessus (strain not given). Format: cell-based.
Another series deals with Mab ATCC 19977 (Smooth). In words: Acute Mab mouse infection model (GM-CSF knockout mice). Format: in vivo. The note with it: 25 mg/kg every day for 7 days. The procedure:
In vivo efficacy of compounds UMN22 and UMN34 were evaluated in acute Mab mouse infection model.

Series [6] can be described thus: Mouse pharmacokinetics studies. The class given is in vivo, CD-1 mice. The following applies: for ƒAUC/MIC: Table 20; for F / Vd / clearance: female, CD-1, mouse, in vivo. In a few lines:
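Plasma from K2EDTA-collected blood analysed by LC-MS/MS with multiple-reaction monitoring in electrospray positive mode. Parameters derived by non-compartmental analysis.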

The mark [7] stands for this setting: Mycobacteroides abscessus, 72 h, Table 22, read-out: MICMab.
Setting [8] is: Mycobacteroides abscessus, against Mycobacterium abscessus, Table 19, read-out: MIC.
The mark [9] stands for this setting: against Mycobacterium abscessus, Table 20, read-out: MIC.

Turning to `CO[C@H]1/C=C/O[C@@]2(C)Oc3c(C)c(O)c4c(O)c(c(/C=N/N5CCN(C)CC5)c(O)c4c3C2=O)NC(=O)/C(C)=C\C=C\[C@H](C)[C@H](O)[C@@H](C)[C@@H](O)[C@@H](C)[C@H](OC(C)=O)[C@@H]1C` [RIF], the MIC against M. fortuitum ATCC 6841 was 6.7 µM (≈ 5.51 µg/mL); in the series on M. xenopi ATCC 19250, 0.04 µM (≈ 0.0329 µg/mL); in the series on M. chimaera CCUG 50989T, 0.07 µM (≈ 0.0576 µg/mL); against M. kansasii ATCC 12478, 0.3 µM (≈ 0.247 µg/mL); in the series with M. abscessus ATCC 19977 (M. abscessus subsp. abscessus ATCC 19977, mean of two experiments, read-out: MIC), 9.5 µM (≈ 7.82 µg/mL); in series [1], 0.06 µM (≈ 0.0494 µg/mL). For the same compound, the MIC in series [2] is 28 µM (≈ 23 µg/mL); in series [3], 13 µM (≈ 10.7 µg/mL); in the series on M. szulgai ATCC 35799, 0.06 µM (≈ 0.0494 µg/mL); in the series with M. chelonae ATCC 35752, 1.4 µM (≈ 1.15 µg/mL); in the series with M. simiae ATCC 25275, above 100 µM; in series [4], 0.04 µM (≈ 0.0329 µg/mL).

For `CO[C@H]1/C=C/O[C@@]2(C)Oc3c(C)c(O)c4c(c3C2=O)C2=NC3(CCN(CC(C)C)CC3)NC2=C(NC(=O)/C(C)=C/C=C/[C@H](C)[C@H](O)[C@@H](C)[C@@H](O)[C@@H](C)[C@H](OC(=O)c2cccnc2)[C@@H]1C)C4=O` [UMN22], in the series with CYP3A4, the “CYP3A4 gene fold-induction at 10 μM” value turned out to be 14.1. Further, the “plasma unbound (ƒu, %)” value in [5] (4 h, 10000 ng/mL) is on record as 2.0%. Also, in the series on THP-1, the “Fold-killing in THP-1” value is given as 3.8. Further, the MICΔorr in the series with Δarr M. abscessus came out at 0.027 µM. Moreover, in the series with M. abscessus ATCC 19977, the MICWT turned out to be 0.025 µM. The MIC in the series on Mycobacterium abscessus (setting [7]) amounted to 0.025 µM (≈ 0.0228 µg/mL). Besides, in the series on Mycobacterium abscessus (setting [8]), the MIC turned out to be 0.025 µM (≈ 0.0228 µg/mL). Moreover, the MIC in the series with Mycobacterium abscessus (setting [9]) stood at 0.025 µM (≈ 0.0228 µg/mL). For the same compound, the “reduction in lung CFU burden vs RFB and untreated groups” value in the series on Mab ATCC 19977 (Smooth) is on record as around 2 log10. In addition, in series [6], the ƒAUC/MIC came to 45.0, the F was found to be 78%, the Vd was found to be 1.6 L/kg and the clearance is 3 mL/min/kg.

`COc1ccccc1NC(=O)O[C@H]1[C@H](C)[C@H](O)[C@H](C)[C@@H](O)[C@@H](C)/C=C/C=C(\C)C(=O)NC2=C3NC4(CCN(CC(C)C)CC4)N=C3c3c(c(O)c(C)c4c3C(=O)[C@@](C)(O/C=C/[C@H](OC)[C@H]1C)O4)C2=O` [UMN34]: in [5], the “plasma unbound (ƒu, %)” value came out at 0.12% and the plasma unbound fraction came out at 0.12%. Also, in the series with THP-1, the “Fold-killing in THP-1” value amounted to 4.9. Also, the MICΔorr against Δarr M. abscessus turned out to be 0.014 µM. Also, the MICWT against M. abscessus ATCC 19977 stood at 0.015 µM. The MIC in the series with Mycobacterium abscessus (setting [9]) stood at 0.015 µM (≈ 0.0143 µg/mL). For the same compound, in the series on Mab ATCC 19977 (Smooth), the “reduction in lung CFU burden vs RFB and untreated groups” value is given as around 2 log10. In [6], this compound gave a ƒAUC/MIC of 0.9.

As for `CO[C@H]1/C=C/O[C@@]2(C)Oc3c(C)c(O)c4c(c3C2=O)C2=NC3(CCN(CC(C)C)CC3)NC2=C(NC(=O)/C(C)=C/C=C/[C@H](C)[C@H](O)[C@@H](C)[C@@H](O)[C@@H](C)[C@H](OC(=O)c2cncnc2)[C@@H]1C)C4=O` [UMN46], the “CYP3A4 gene fold-induction at 10 μM” value with CYP3A4 turned out to be 7.9. Also, in series [5] (4 h, 10000 ng/mL), the “plasma unbound (ƒu, %)” value was 4.7%. Also, in the series on THP-1, the “Fold-killing in THP-1” value was found to be 4.4. The compound also returned an MICΔorr with Δarr M. abscessus of 0.025 µM. Also, the MICWT against M. abscessus ATCC 19977 worked out at 0.018 µM. For the same compound, in the series on Mycobacterium abscessus (setting [7]), the MIC was determined as 0.018 µM (≈ 0.0164 µg/mL). In addition, in the series on Mycobacterium abscessus (setting [8]), the MIC stood at 0.018 µM (≈ 0.0164 µg/mL). The MIC with Mycobacterium abscessus (setting [9]) was 0.018 µM (≈ 0.0164 µg/mL). In series [6], the ƒAUC/MIC is listed as 87.8, the F came to 86%, the Vd was 2.1 L/kg and the clearance came to 4 mL/min/kg.
